In one assay the test system is Mutant strain CJXPK001. The experiment in a line: Growth of mutant strain in minimum medium with 3,4-dehydroproline. The class given is cell-based, Corynebacterium ammoniagenes. More on the design: key: +: growth; −: no growth. The following applies: 30° C., 5 days. The method, then: (§1) To be more specific, in this innovative research, we adopted Corynebacterium ammoniagenes KFCC 10743 as parent strain and treated it with UV radiation and mutation derivatives such as N-methyl-N′-nitro-N-nitrosoguanidine (NTG) according to ordinary procedure and, by adding 0 to 50 mg/L of proline analogue 3,4-dehydroproline (Sigma Company) in the minimum medium shown in the following Table 1, we developed growing mutant strains. From them, a strain which grows in 30 mg/L 3,4-dehydroproline was separated, named CJXPK001. And, it was deposited under the Budapest Treaty to the Korea Culture Center of Microorganisms on Dec. 7, 2001 with accession Number KCCM 10340.
(§2) Further, after adding 0 to 50 mg/L of 3,4-dehydroproline in the minimum medium shown in the above Table 1 according to concentration levels, the medium was fermented at 30° C. for 5 days. And the whole process was scrutinized to find the growth rates of the mutant strain CJXPK001 and the parent strain KFCC 10743.

In another assay the test system is Parent strain KFCC 10743. As to the kind of experiment: Growth of parent strain in minimum medium with 3,4-dehydroproline. The conditions noted are these: 5 days; for growth: 30° C. It is filed as cell-based, Corynebacterium ammoniagenes. Also noted: key to growth: +: growth; −: no growth. As for the experimental part: as §1, §2
The mark [1] stands for this setting: parent strain KFCC 10743, 30° C.

In the case of `O=C(O)C1C=CCN1` (centres unmarked) [3,4-dehydroproline], the growth result is listed as “+” in the assay on Mutant strain CJXPK001 (3,4-dehydroproline 30 mg/L); “−” with Mutant strain CJXPK001 (3,4-dehydroproline 40 mg/L); “−” with Mutant strain CJXPK001 (3,4-dehydroproline 50 mg/L); “+” in the assay on Parent strain KFCC 10743 (3,4-dehydroproline 5 mg/L); “−” in the assay with Parent strain KFCC 10743 (3,4-dehydroproline 10 mg/L); “−” in the assay on Parent strain KFCC 10743 (3,4-dehydroproline 20 mg/L). Also, the growth result with Parent strain KFCC 10743 (3,4-dehydroproline 30 mg/L), with Parent strain KFCC 10743 (3,4-dehydroproline 40 mg/L) and in the assay on Parent strain KFCC 10743 (3,4-dehydroproline 50 mg/L) was “−” in each case. Further, the “3,4-dehydroproline concentration at which the strain showed resistance” value in the assay with Parent strain KFCC 10743 (setting [1]) stood at 5 mg/L. Moreover, the “3,4-dehydroproline concentration level at which no growth was observed” value with Parent strain KFCC 10743 (setting [1]) is listed as “above 10 mg/L”.

The record behind these values is patent US20030148498A1, “Microorganism overproducing 5'-xanthylic acid” (priority 2001, published 2003).
